Test results: US8530648B2, “Diaza-spiro[5.5]undecanes” (Novartis AG, priority 2009, dated 2013)

Key:
hOx1R [1] = target: T1, hOx1R (Homo sapiens (Human), UniProt O43613); experiment: Calcium accumulation in cells (FLIPR), hOx1R; type: cell-based; conditions: inhibition of orexin A induced calcium accumulation, Cheng and Prusoff correction
Summary of the method: (§1)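 Cells expressing human orexin 1 or 2 receptor, serum-deprived overnight, loaded with Fluo-4-AM (2 μM) plus 0.1 mM probenecid, pH 7.4 HEPES buffer with 1% BSA.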

hOx2R [2] = target: T2, hOx2R (Homo sapiens (Human), UniProt O43614); experiment: Calcium accumulation in cells (FLIPR), hOx2R; type: cell-based; conditions: inhibition of orexin A induced calcium accumulation, Cheng and Prusoff correction
Summary of the method: as §1

hOx1R [3] = target: T1, hOx1R; experiment: Radioligand binding assay, [125I]orexin A, hOx1R; conditions: radioligand [125I]orexin A, competition
Method: (§2) For crude cell membrane preparations, cells (CHO, Chinese hamster ovary or HEK, human embryonic kidney) expressing human orexin 1 or human orexin 2 receptors, were washed with HEPES (10 mM, pH 7.5), scraped off the culture plates with the same buffer, and centrifuged at 4° C. for 5 min at 2500×g. The cell pellet was either stored at −80° C. or used directly. Before the experiments, cell membranes were re-suspended in binding assay buffer (10 mM HEPES, 0.5% (w/v) bovine serum albumin, pH 7.5) by homogenisation with a Polytron homogeniser at 50 Hz for 20 s. Cell membranes were also used as made available by commercial providers.
(§3) In initial saturation experiments (to calculate Bmax), cell homogenates (150 μl) were incubated with 25-300 pM of the radioligand ([^125I]orexin A, 50 μl), 8 concentrations in triplicates in the presence or absence Orexin A (1 μM, 50 μl) to define non specific binding. Bound radioactivity was measured, and data were analysed with the program XLFIT or Graphpad Prism. Protein concentration was determined according to the Bradford/BioRad Protein Assay Kit.
(§4) In competition experiments, cell homogenates (150 μl) were incubated in assay buffer (10 mM HEPES, pH 7.5, 0.5% (w/v) bovine serum albumin, 5 mM MgCl2, 1 mM CaCl2, and tween 0.05%) for 1 h at room temperature with about 100 pM of the radioligand ([^125I]orexin A, 2100 Ci/mmole, 50 μl), and with various concentrations of compounds of the invention (50 μl) in triplicates; non-specific binding was determined in the presence of Orexin A (1 μM). Reactions were terminated by vacuum filtration, 3 washes of ice cold wash buffer (Tris-HCl pH 7.4/10 mM, with NaCl 154 mM).

hOx2R [4] = target: T2, hOx2R; experiment: Radioligand binding assay, [125I]orexin A, hOx2R; conditions: radioligand [125I]orexin A, competition
Method: as §2, §3, §4

C75/Bl6 mice [5] = experiment: Beam Braking Motor Activity Behavior (BBM); type: in vivo; conditions: 100 mg/kg p.o.; for BBM: induced inactivity vs controls: in the first 3 hours
Method: Beam Braking Motor Activity Behavior (BBM)
In the morning (9:00 h) of experimental day 1, the animals (C75/Bl6 mice; Janvier, France) are singly placed into home cages (Type 3, only containing sawdust, as well as food and water ad libitum). The cages are put into frames equipped with infrared beams to record the activity/inactivity of the mice (Moti 4.25, TSE Systems, Germany). The first 1.5 days are used for habituation (see Figure). Five minutes before lights-off of the second day, the animals (n=6/groups) are orally treated with vehicle, the compounds or a positive control (e.g. almorexant 100 mg/kg). Then, the animals stay in the setups for the following lights-off period and activity monitored.
The data are expressed as means±SEM (standard error of the means) of these difference scores for each hour as well as for the first four hours after administration, the time period which is most sensible to the effects of sleep-promoting compounds. Statistical analysis of the data is done with Systat 11 software. Since the data are normally distributed, analysis of variance (ANOVA) with treatment as between subject factor and the Dunnett test for post-hoc pairwise comparison were used. Furthermore, Student t-tests are used for single pair wise comparisons.

C75/Bl6 mice [6] = experiment: Sleep Electroencephalography (Sleep EEG); type: in vivo; conditions: 100 mg/kg p.o.
Method: Sleep Electroencephalography (Sleep EEG):
The sleep pattern of tethered mice (C75/Bl6 mice; Janvier, France), chronically implanted with cortical EEG electrodes and an EMG electrode (neck muscle), is scored using the rodent scoring module of Somnologica software. Activity is monitored with an infrared sensor placed in the top of the cage and video recordings are collected with a day/night camera and infrared light during the dark phase (12 hours, lights off at 15:00). Mice are repeatedly acclimated to the recording setup and for a minimum of 3 days before each experiment. All treatments occur 5-10 min before lights off. On Day 1 mice are handled and the oral gavage introduced without application, on Day 2 vehicle is applied, on Day 3 compound is applied, and on Day 4 vehicle is applied. 22 hour recordings are scored in 10 s epochs and the total minutes per hour in Active wake (wake with locomotion), Quiet wake, and sleep are determined. Significance (p<0.05) is tested between vehicle and compound with Systat12 using the Restricted Maximum Likelihood test followed by post-hoc analysis using Fisher's Least Significant Differences test when either treatment or the interaction between treatment and hour had p<0.05.

T2 sequence (O43614 whole entry): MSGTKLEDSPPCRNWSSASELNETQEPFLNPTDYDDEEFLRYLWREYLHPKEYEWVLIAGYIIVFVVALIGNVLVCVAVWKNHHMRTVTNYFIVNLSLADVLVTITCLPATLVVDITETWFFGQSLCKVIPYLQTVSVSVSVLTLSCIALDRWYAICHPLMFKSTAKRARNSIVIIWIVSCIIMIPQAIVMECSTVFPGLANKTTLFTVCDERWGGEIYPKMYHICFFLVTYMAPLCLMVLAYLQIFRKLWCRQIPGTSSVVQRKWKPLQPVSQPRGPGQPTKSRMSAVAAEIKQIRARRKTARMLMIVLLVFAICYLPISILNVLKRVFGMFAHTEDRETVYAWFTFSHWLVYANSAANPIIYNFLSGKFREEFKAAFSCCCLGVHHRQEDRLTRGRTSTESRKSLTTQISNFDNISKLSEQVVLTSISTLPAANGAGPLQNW
T1 sequence (O43613 whole entry): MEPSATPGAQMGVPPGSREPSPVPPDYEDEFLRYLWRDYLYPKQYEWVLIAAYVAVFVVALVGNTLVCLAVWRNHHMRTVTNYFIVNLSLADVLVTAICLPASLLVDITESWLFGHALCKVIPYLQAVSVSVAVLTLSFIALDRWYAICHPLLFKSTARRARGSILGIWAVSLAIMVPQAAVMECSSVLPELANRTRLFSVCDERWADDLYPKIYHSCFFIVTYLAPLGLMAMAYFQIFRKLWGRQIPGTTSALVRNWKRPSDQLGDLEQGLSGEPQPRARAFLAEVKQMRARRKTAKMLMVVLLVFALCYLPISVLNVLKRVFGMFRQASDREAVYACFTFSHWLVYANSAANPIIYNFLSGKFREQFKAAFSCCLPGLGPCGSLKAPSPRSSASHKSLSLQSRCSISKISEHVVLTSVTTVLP

SMILES | Ki (hOx1R [1]) [nM] | Ki (hOx2R [2]) [nM] | Kd (hOx1R [3]) [nM] | Kd (hOx2R [4]) [nM] | BBM: duration of induced inactivity (C75/Bl6 mice [5]) [h] | BBM: induced inactivity vs controls (C75/Bl6 mice [5]) | Sleep EEG: duration of reduced active wake and increased sleep (C75/Bl6 mice [6]) | Sleep EEG: effect on quiet wake (C75/Bl6 mice [6]) | Sleep EEG: reduction of active wake and increase of sleep vs controls (C75/Bl6 mice [6])
O=C1N(Cc2c[nH]c3ccccc23)CCCC12CCN(c1cnc3ccccc3n1)CC2 [Example 1, 2-((1H-indol-3-yl)methyl)-9-(quinoxalin-2-yl)-2,9-diazaspiro[5.5]undecan-1-one] | 314 | 30 | 374 | 42 | 6 to 7 | 15-22 minutes/hour | up to 7 hours | minimal effects | 7-16 minutes/hour
O=C1CCCC2(CCN(c3nc4cc(Cl)ccc4o3)CC2)N1Cc1cccc2[nH]ccc12 [Example 136, 1-((1H-indol-4-yl)methyl)-9-(5-chlorobenzo[d]oxazol-2-yl)-1,9-diazaspiro[5.5]undecan-2-one] | 657 | 11 | 1410 | 96 |  |  |  |  | 
CNC(=O)[C@@H](c1ccccc1)N1CCc2cc(OC)c(OC)cc2[C@@H]1CCc1ccc(C(F)(F)F)cc1 [almorexant, reference compound] |  |  |  |  | 5 to 7 | 18-21 minutes/hour | 5 to 6 h | without noticeable effect | 9-16 minutes/hour
